Test results from patent publication US9867372B2, “Tetrazolinone compound and use of same” (SUMITOMO CHEMICAL COMPANY, LIMITED, priority 2013, dated 2018).

Test system: cucumber powdery mildew fungus (Sphaerotheca fuliginea, a QoI-resistant strain, cytochrome b position 143 mutated from glycine to alanine)
Format: in vivo
Conditions: 200 ppm, QoI-resistant strain (Test Example 2, Comparative Example 2)

Cn1nnn(-c2ccccc2COc2cccc(-c3ccccc3)c2)c1=O [1-[2-(biphenyl-3-yloxymethyl)-phenyl]-4-methyl-1,4-dihydrotetrazol-5-one]
area of lesion spots on the treated plant relative to that on an untreated plant: ≥ 70%
